What was measured:
[1] = biological target: T1, HisAviTEV-hSTING (139-342) human AQ-mutated protein (Homo sapiens, UniProt Q86WV6, G230A/H232R/R293Q); assay: Protein thermal shift assay, STING C-terminal binding domain protein; details: test compound final concentration 0.5 mM
T1 construct: made in house; host or cells: E. coli Rosetta 2 (DE3), co-expressed with BirA (1-321)

[2] = biological target: T2, His-Avi-TEV-mSTING (138-341) mouse wild-type protein (Mus musculus, UniProt Q3TBT3); assay: as above; details: test compound final concentration 0.5 mM
T2 construct: made in house; host or cells: E. coli Rosetta 2 (DE3), co-expressed with BirA (1-321)
T2 sequence (Q3TBT3 with tags, fused parts or gaps limits assumed): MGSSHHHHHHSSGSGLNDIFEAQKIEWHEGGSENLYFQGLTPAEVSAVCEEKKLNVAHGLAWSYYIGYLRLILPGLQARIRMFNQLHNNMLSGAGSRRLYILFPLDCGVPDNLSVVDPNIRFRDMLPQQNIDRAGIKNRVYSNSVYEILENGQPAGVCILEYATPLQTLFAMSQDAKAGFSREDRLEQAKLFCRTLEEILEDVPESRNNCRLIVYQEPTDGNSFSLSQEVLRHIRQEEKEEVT
Procedure: Each of these expression strains was added to a TB medium containing 100 μg/mL ampicillin, 50 μg/mL streptomycin, and 30 μg/mL kanamycin, cultured at 37° C., then exposed to 100 μM IPTG for inducible expression, and further cultured at 16° C.
The culture solution was centrifuged, and the resulting bacterial cells were suspended in 50 mM HEPES pH 8.0, 500 mM NaCl, 20 mM imidazole, 1 mM DTT, 5% (w/v) glycerol, Complete EDTA free, and then subjected to freeze-thawing. After addition of Lysozyme and DNase I, proteins were extracted by ultrasonic disintegration, and centrifugation was performed and the resulting supernatant was collected. The supernatant obtained was purified by using an AKTA express chromatography system (GE Healthcare, IL, US) with a HisTrap FF column (GE Healthcare), and eluted with buffer (20 mM HEPES pH 7.5, 120 mM NaCl, 20% Glycerol, 0.8 mM DTT) through a Superdex 200 16/60 column (GE Healthcare). […] The protein concentrations were measured by using a NanoDrop2000 (Thermo Fisher Scientific, MA, US), and the proteins were cryopreserved at −80° C. until use.
The binding ability of each compound to the STING C-terminal binding domain proteins was evaluated by protein thermal shift assay, which uses the elevation of thermal denaturation temperature of protein as an index.
Specifically, 3 μL of a test compound (final concentration: 0.5 mM), 3 μL of SYPRO Orange Protein Gel Stain (Thermo Fisher Scientific) (final concentration: 20-fold), and 6 μL of a STING protein were mixed with use of assay buffer (20 mM Tris-HCl pH 7.5, 120 mM NaCl) in a 384-well real-time PCR plate, and mixed together with a plate shaker. With a real-time PCR system (Thermo Fisher Scientific), the temperature was increased from 25° C. to 95° C. at a rate of 0.03° C./sec, and the thermal denaturation temperature of the protein was measured by using fluorescence emitted from SYPRO Orange as an index. From the measurement acquired, Tm (the midpoint of the unfolding transition) (° C.) was determined as a temperature at which the increase rate of fluorescence intensity was maximized by using the analysis software Protein Thermal Shift software (Thermo Fisher Scientific). The Tm value for a well with no compound was subtracted from the Tm value for each test compound to calculate the Tm shift caused by the compound as ΔTm (° C.).

[3] = test system: CT26.WT cells; assay: Anti-Tumor Test (1), intratumoral administration; format: in vivo, BALB/c mouse; details: 10 μg intratumorally on Day 7, 9, and 11; CT26.WT in BALB/c mice; FIGS. 7a and 7b
Procedure: Mice: Before use for experiment, 5-week-old female BALB/c mice (BALB/cAnNCrlCrlj) (Charles River Laboratories Japan, Inc.) were habituated under SPF conditions for 4 days or longer.
Measurement, calculation formula: In all the studies, the major axis and minor axis of a tumor were measured twice or three times per week by using an electronic digital caliper (CD15-CX, Mitutoyo Corporation) to calculate tumor volume (mm^3). The calculation formula is as follows. Tumor volume (mm^3)=0.5×Major axis (mm)×[Minor axis (mm)]^2
Each test compound was diluted with physiological saline (Otsuka Pharmaceutical Factory, Inc.) for use. In administration of it, 50 μL was intratumorally administered.
Cells of the mouse colorectal cancer cell line CT26.WT (CRL2638) purchased from the American Type Culture Collection were used. CT26.WT cells were suspended in physiological saline, 1.0×10^6 cells were subcutaneously transplanted into the right axilla of each BALB/c mouse (Day 0), and 7 days thereafter the mice were randomly grouped. Each test compound in a dose of 10 μg was intratumorally administered on Day 7, 9, and 11, three times in total. A group with administration of physiological saline was set as a group with a vehicle. The number of mice in each group was five or six.

[4] = biological target: T3, HisAviTEV-hSTING (139-342) human wild-type protein (Homo sapiens, UniProt Q86WV6, H232R); assay: Protein thermal shift assay, STING C-terminal binding domain protein; details: test compound final concentration 0.5 mM
T3 construct: made in house; host or cells: E. coli Rosetta 2 (DE3), co-expressed with BirA (1-321)
T3 sequence (Q86WV6 with tags, fused parts or gaps H232R): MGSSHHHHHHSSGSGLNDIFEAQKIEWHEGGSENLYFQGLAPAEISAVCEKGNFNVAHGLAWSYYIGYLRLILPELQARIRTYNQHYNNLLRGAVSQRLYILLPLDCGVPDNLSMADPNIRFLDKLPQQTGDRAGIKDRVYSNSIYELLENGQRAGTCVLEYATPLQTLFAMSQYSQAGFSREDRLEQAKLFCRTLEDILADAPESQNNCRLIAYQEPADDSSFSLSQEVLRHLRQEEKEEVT

[5] = biological target: T4, HisAviTEV-hSTING (139-342) human REF-mutated protein (Homo sapiens, UniProt Q86WV6); assay: as above; details: test compound final concentration 0.5 mM
T4 construct: made in house; host or cells: E. coli Rosetta 2 (DE3), co-expressed with BirA (1-321)
T4 sequence (Q86WV6 with tags, fused parts or gaps, change not shown): as the sequence (Q86WV6 with tags, fused parts or gaps H232R) above, with R133H counted along it

[6] = biological target: Human STING (Homo sapiens, UniProt Q86WV6, G230A/H232R/R293Q/R71H); assay: Reporter gene assay, human STING agonist activity, THP1-Dual cells (HAQ-mutated), IRF pathway; details: THP1-Dual cells IRF EC50, THP1-Dual cells (HAQ-mutated), 24 hours; 100% = maximum count with ML-RR-CDA·2Na+
Human STING, sequence (Q86WV6 whole entry R71H/G230A/H232R/R293Q): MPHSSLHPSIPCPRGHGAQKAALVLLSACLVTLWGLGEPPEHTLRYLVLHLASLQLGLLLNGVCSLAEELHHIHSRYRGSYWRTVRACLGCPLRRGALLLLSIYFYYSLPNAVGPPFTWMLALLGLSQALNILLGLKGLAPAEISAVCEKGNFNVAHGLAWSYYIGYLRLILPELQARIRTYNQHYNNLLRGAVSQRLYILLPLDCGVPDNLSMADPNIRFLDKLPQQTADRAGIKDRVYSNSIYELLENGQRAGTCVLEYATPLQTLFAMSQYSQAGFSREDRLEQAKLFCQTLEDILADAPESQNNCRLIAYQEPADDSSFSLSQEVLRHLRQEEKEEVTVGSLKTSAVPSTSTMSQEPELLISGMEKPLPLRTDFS

[7] = test system: CT26.WT-hHER2 cells; assay: Anti-Tumor Test (6); format: in vivo, BALB/c mouse; details: 1.2 μg (equivalent of the conjugate's CDN component) into the tail vein on Day 7, once; CT26.WT-hHER2 in BALB/c mice
Procedure: Each antibody-CDN conjugate was diluted with acetate buffer (10 mM Acetate Buffer, 5% Sorbitol, pH 5.5) (NACALAI TESQUE, INC.) for use. In administration of it, 200 μL was administered into the tail vein.
CT26.WT-hHER2 cells were suspended in physiological saline, 5.0×10^6 cells were subcutaneously transplanted into the right axilla of each BALB/c mouse (Day 0), and 7 days thereafter the mice were randomly grouped. Each specimen for administration was administered into the tail vein on Day 7, once in total. A group with administration of acetate buffer was set as a group with a vehicle. The number of mice in each group was five.

T1 sequence (Q86WV6 with tags, fused parts or gaps G230A/H232R/R293Q): as the sequence (Q86WV6 with tags, fused parts or gaps H232R) above, with G131A, R194Q counted along it

O=c1c2ncn([C@@H]3O[C@@H]4COP(=O)(S)O[C@H]5[C@@H](O)[C@H](n6cc7c8c(ncnc86)NCCC7)O[C@@H]5COP(=O)(S)O[C@@H]3[C@@H]4O)c2ncn1CCO (single isomer, unassigned) [6a]
ΔTm at 500 µM [1]: 14.8 °C
ΔTm at 500 µM [2]: 15.7 °C
tumor growth (tumor volume) [3]: significantly suppressed
ΔTm at 500 µM [4]: 10.6 °C
ΔTm at 500 µM [5]: 5.7 °C
EC50 [6]: 0.6 µM

NCCNc1nc(N)c2ncn([C@@H]3O[C@@H]4COP(=O)(S)O[C@H]5[C@@H](O)[C@H](n6cc7c8c(ncnc86)NCCC7)O[C@@H]5COP(=O)(S)O[C@@H]3[C@@H]4O)c2n1 (single isomer, unassigned) [8b]
tumor growth (tumor volume) [3]: significantly suppressed
tumor growth (tumor volume) [7]: not suppressed
EC50 [6]: 6.6 µM

— US12370263B2, “Cyclic dinucleotide derivative based antibody-drug conjugates” (DAIICHI SANKYO COMPANY, LIMITED, priority 2018, dated 2025)
